Measurements as given in patent US20080096861A1, “Chemical Compounds” (SMITHKLINE BEECHAM CORPORATION, priority 2004, published 2008).

The compounds below were run on HIV-1 IIIB (assay: HOS HIV-1 infectivity assay). Settings: Human immunodeficiency virus 1, IIIB; as determined by the infectivity assay; strain not stated in Table 2; read-out: Activity Level.
Type: cell-based
Experimental: Compounds were profiled against two HIV-1 viruses, the M-tropic (CCR5 utilizing) Ba-L strain and the T-tropic (CXCR4 utilizing) IIIB strain. Both viruses were propagated in human peripheral blood lymphocytes. Compounds were tested for there ability to block infection of the HOS cell line (expressing hCXCR4/hCCR5/hCD4/pHIV-LTR-luciferase) by either HIV-1 Ba-L or HIV-1 IIIB. Compound cytotoxicity was also examined in the absence of virus addition.
HOS cells (expressing hCXCR4/hCCR5/hCD4/pHIV-LTR-luciferase) were harvested and diluted in Dulbeccos modified Eagles media supplemented with 2% FCS and non-essential amino acid to a concentration of 60,000 cells/ml. The cells were plated into 96-well plates (100 ul per well) and the plates were placed in a tissue culture incubator (37° C.; 5% CO2/95% air) for a period of 24 h.
Subsequently, 50 ul of the desired drug solution (4 times the final concentration) was added to each well and the plates were returned to the tissue culture incubator (37° C.; 5% CO2/95% air) for 1 h. Following this incubation 50 ul of diluted virus was added to each well (approximately 2 million RLU per well of virus). The plates were returned to the tissue culture incubator (37° C.; 5% CO2/95% air) and were incubated for a further 96 h.
Following this incubation the endpoint for the virally infected cultures was quantified following addition of Steady-Glo Luciferase assay system reagent (Promega, Madison, Wis.). Cell viability or non-infected cultures was measured using a CellTiter-Glo luminescent cell viability assay system (Promega, Madison, Wis.). All luminescent readouts are performed on a Topcount luminescence detector (Packard, Meridien, Conn.).

Compound | IC50 [µM]
CN(Cc1nc2ccccc2n1CC(=O)NCc1cccnc1)C1CCCc2cccnc21 (stereo not drawn) [Example 29, 2-(2-{[Methyl(5,6,7,8-tetrahydro-8-quinolinyl)amino]methyl}-1H-benzimidazol-1-yl)-N-(3-pyridinylmethyl)acetamide] | < 0.1
NCCCCn1c(CN(Cc2ccccc2)C2CCCc3cccnc32)nc2ccccc21 (stereo not drawn) [Example 55, N-{[1-(4-Aminobutyl)-1H-benzimidazol-2-yl]methyl}-N-(Phenylmethyl)-5,6,7,8-tetrahydro-8-quinolinamine] | 0.5 to 10
CN(Cc1nc2ccccc2n1CC(C)(C)CNC(=N)N)C1CCCc2cccnc21 (stereo not drawn) [Example 68, N-[2,2-Dimethyl-3-(2-{[methyl(5,6,7,8-tetrahydro-8-quinolinyl)amino]methyl}-1H-benzimidazol-1-yl)propyl]guanidine] | < 0.1
CN(Cc1nc2ccccc2n1CCCN)[C@H]1CCCc2cccnc21 [Example 110, (8S)—N-{[1-(3-Aminopropyl)-1H-benzimidazol-2-yl]methyl}-N-methyl-5,6,7,8-tetrahydro-8-quinolinamine] | < 0.1
CN(C)CC(C)(C)Cn1c(CN(C)C2CCCc3cccnc32)nc2ccccc21 (stereo not drawn) [Example 67, N-({1-[3-(Dimethylamino)-2,2-dimethylpropyl]-1H-benzimidazol-2-yl}methyl)-N-methyl-5,6,7,8-tetrahydro-8-quinolinamine] | < 0.1
CN(Cc1nc2ccccc2n1C[C@H]1CCCN(Cc2cccn2C)C1)[C@H]1CCCc2cccnc21 [Example 104, (8S)—N-Methyl-N-{[1-({(3S)-1-[(1-methyl-1H-pyrrol-2-yl)methyl]-3-piperidinyl}methyl)-1H-benzimidazol-2-yl]methyl}-5,6,7,8-tetrahydro-8-quinolinamine] | < 0.1
CN(C)Cc1ccccc1-n1c(CN(C)C2CCCc3cccnc32)nc2ccccc21 (stereo not drawn) [Example 74, N-[(1-{2-[(Dimethylamino)methyl]phenyl}-1H-benzimidazol-2-yl)methyl]-N-methyl-5,6,7,8-tetrahydro-8-quinolinamine] | 0.5 to 10
CC(C)CCN1CCC[C@H](Cn2c(CN(C)[C@H]3CCCc4cccnc43)nc3ccccc32)C1 [Example 84, (8S)—N-Methyl-N-[(1-{[(3S)-1-(3-methylbutyl)-3-piperidinyl]methyl}-1H-benzimidazol-2-yl)methyl]-5,6,7,8-tetrahydro-8-quinolinamine] | < 0.1
CN(Cc1nc2ccccc2n1C[C@H]1CCCN(Cc2cccs2)C1)[C@H]1CCCc2cccnc21 [Example 102, (8S)—N-Methyl-N-[(1-{[(3S)-1-(2-thienylmethyl)-3-Piperidinyl]methyl}-1H-benzimidazol-2-yl)methyl]-5,6,7,8-tetrahydro-8-quinolinamine] | < 0.1
CN1CCC[C@@H](Cn2c(CN(C)[C@H]3CCCc4cccnc43)nc3ccccc32)C1 [Example 75f, (8S)—N-Methyl-N-[(1-{[(3R)-1-methyl-3-piperidinyl]methyl}-1H-benzimidazol-2-yl)methyl]-5,6,7,8-tetrahydro-8-quinolinamine] | < 0.1
CC(C)CCN1CCC[C@@H](Cn2c(CN(C)[C@H]3CCCc4cccnc43)nc3ccccc32)C1 [Example 80, (8S)—N-Methyl-N-[(1-{[(3R)-1-(3-methylbutyl)-3-piperidinyl]methyl}-1H-benzimidazol-2-yl)methyl]-5,6,7,8-tetrahydro-8-quinolinamine] | < 0.1
CN(Cc1nc2ccccc2n1CCn1ccnc1)C1CCCc2cccnc21 (stereo not drawn) [Example 70, N-({1-[2-(1H-Imidazol-1-yl)ethyl]-1H-benzimidazol-2-yl}methyl)-N-methyl-5,6,7,8-tetrahydro-8-quinolinamine] | 0.1 to 0.5

Next, values leading:

IC50 [µM] | Compound
< 0.1 | CN(Cc1nc2ccccc2n1C[C@H]1CCCN(Cc2ncc[nH]2)C1)[C@H]1CCCc2cccnc21 [Example 45, (8S)—N-[(1-{[(3S)-1-(1H-Imidazol-2-ylmethyl)-3-piperidinyl]methyl}-1H-benzimidazol-2-yl)methyl]-N-methyl-5,6,7,8-tetrahydro-8-quinolinamine]
0.1 to 0.5 | CN(Cc1nc2ccccc2n1CC(=O)NCc1ccncc1)C1CCCc2cccnc21 (stereo not drawn) [Example 28, 2-(2-{[Methyl(5,6,7,8-tetrahydro-8-quinolinyl)amino]methyl}-1H-benzimidazol-1-yl)-N-(4-pyridinylmethyl)acetamide]
0.5 to 10 | CN(C)CCCn1ccnc1CN(C)C1CCCc2cccnc21 (stereo not drawn) [Example 38, N-({1-[3-(Dimethylamino)propyl]-1H-imidazol-2-yl}methyl)-N-methyl-5,6,7,8-tetrahydro-8-quinolinamine]
< 0.1 | CC(C)N1CCC[C@H](Cn2c(CN(C)[C@@H]3CCCc4cccnc43)nc3ccccc32)C1 [Example 83, (8R)—N-methyl-N-[(1-{[(3S)-1-(1-methylethyl)-3-piperidinyl]methyl}-1H-benzimidazol-2-yl)methyl]-5,6,7,8-tetrahydro-8-quinolinamine]
< 0.1 | CN(C)CC(C)(C)CN1CCC[C@H](Cn2c(CN(C)[C@H]3CCCc4cccnc43)nc3ccccc32)C1 [Example 101, (8S)—N-{[1-({(3S)-1-[3-(Dimethylamino)-2,2-dimethylpropyl]-3-piperidinyl}methyl)-1H-benzimidazol-2-yl]methyl}-N-methyl-5,6,7,8-tetrahydro-8-quinolinamine]
< 0.1 | CN(Cc1nc2ccccc2n1CCCN)C1CCCc2cccnc21 (stereo not drawn) [Example 15b, N-{[1-(3-Aminopropyl)-1H-benzimidazol-2-yl]methyl}-N-methyl-5,6,7,8-tetrahydro-8-quinolinamine]
0.1 to 0.5 | CN1CCCCC1CCCn1c(CN(C)C2CCCc3cccnc32)nc2ccccc21 (stereo not drawn) [Example 59, N-Methyl-N-({1-[3-(1-methyl-2-piperidinyl)propyl]-1H-benzimidazol-2-yl}methyl)-5,6,7,8-tetrahydro-8-quinolinamine]
< 0.1 | CN1CCC[C@H](Cn2c(CN(CCCO)[C@H]3CCCc4cccnc43)nc3ccccc32)C1 [Example 96, 3-{[(1-{[(3S)-1-Methyl-3-piperidinyl]methyl}-1H-benzimidazol-2-yl)methyl][(8S)-5,6,7,8-tetrahydro-8-quinolinyl]amino}-1-propanol]
0.1 to 0.5 | CN(Cc1nc2ccccc2n1CCCCNS(C)(=O)=O)C1CCCc2cccnc21 (stereo not drawn) [Example 51, N-[4-(2-{[Methyl(5,6,7,8-tetrahydro-8-quinolinyl)amino]methyl}-1H-benzimidazol-1-yl)butyl]methanesulfonamide]
0.1 to 0.5 | CC(C)N1CCC[C@@H]1CN1CCC[C@H](Cn2c(CN(C)[C@H]3CCCc4cccnc43)nc3ccccc32)C1 [Example 109, (8S)—N-Methyl-N-({1-[((3S)-1-{[(2R)-1-(1-methylethyl)-2-pyrrolidinyl]methyl}-3-piperidinyl)methyl]-1H-benzimidazol-2-yl}methyl)-5,6,7,8-tetrahydro-8-quinolinamine]
< 0.1 | CCCN(Cc1nc2ccccc2n1C[C@H]1CCCN(C)C1)[C@H]1CCCc2cccnc21 [Example 93, (8S)—N-[(1-{[(3S)-1-Methyl-3-piperidinyl]methyl}-1H-benzimidazol-2-yl)methyl]-N-propyl-5,6,7,8-tetrahydro-8-quinolinamine]
< 0.1 | CN(Cc1nc2ccccc2n1C[C@H]1CCCNC1)[C@H]1CCCc2cccnc21 [Example 39h, (8S)—N-Methyl-N-({1-[(3S)-3-piperidinylmethyl]-1H-benzimidazol-2-yl}methyl)-5,6,7,8-tetrahydro-8-quinolinamine]
